Inconclusive results are not listed.
Test system: CCRF-CEM viability, CellTiter-Glo ATP luminescence, 8-48 h
Experiment: cytotoxicity in CCRF-CEM lymphoblastic leukemia cells – cell-based, CellTiter-Glo ATP luminescence, 8/24/48 h, dry powder, HRAS target identification, dose response (AID 720607)

Structure (SMILES)	AC50 (measured here: 8 h treatment)	AC50 (measured here: 24 h treatment)	AC50 (measured here: 48 h treatment)
COC(=O)c1ccc([C@@H]2c3[nH]c4ccccc4c3C[C@@H](C(=O)OC)N2C(=O)CCl)cc1	272 nM	19.9 nM	23.4 nM
Cc1onc(C(=O)N2CCN(C(c3ccc(Cl)cc3)c3ccc(Cl)cc3)CC2)c1[N+](=O)[O-]	553 nM	68.9 nM	78.8 nM
COc1ccc(N(C(=O)CCl)C(C(=O)NCCc2ccccc2)c2cccs2)cc1Cl (stereo not given)	321 nM	39 nM	38.7 nM
CC(C)(C)OC(=O)NCCOCCOCCOc1ccc(N(C(=O)CCl)C(C(=O)NCCc2ccccc2)c2cccs2)cc1Cl (stereo not given)	454 nM	34.4 nM	41.5 nM
C#CCCCC(=O)NCCOCCOCCOc1ccc(N(C(=O)CCl)C(C(=O)NCCc2ccccc2)c2cccs2)cc1Cl (stereo not given)	2980 nM	588 nM	565 nM

Reference: PubChem BioAssay AID720607 (Broad Institute, 2013)
